For data set [1], the system named is PAO1 and PA14 strains of PsA. The experiment in a line: Time kill curves, planktonic cells. It counts as cell-based, Pseudomonas aeruginosa. As to the method:
FIGS. 13A-13B show the time kill curve of ZnPor (II) (25 μg/mL) against PAO1 (FIG. 12A) and PA14 (FIG. 12B) strains of PsA. Overnight cultures of strain PAO1 and PA14 grown in MSG media were diluted in fresh MSG to 10^6 cells/mL with fresh medium. ZnPor was added (25 μg/ml) and cultures were grown aerobically, with shaking, for 6 hours. Viable cell count (CFU per ml) was determined by serially diluting bacterial cells at the indicated time points, onto LB agar. Data from 3 separate experiments represents total mean±standard error, total (n=9) and (n=8) respectively.

The test system of the next data set is A549/U937. The class given is cell-based. As to the method: FIGS. 22A-22B show a lung co-culture (A549/U937) model after 24 hour exposure to ZnPor displaying no toxicity (FIG. 22A) and U937 stained and imaged after 24 hours of dark exposure to 50 μM ZnPor (FIG. 22B).
Data set [2] has as its system Pseudomonas aeruginosa (GN). In words: Killing activity against a range of bacteria. The class given is cell-based.
The test system of data set [3] is S. aureus MSSA and MRSA strains (GP). The experiment in a line: Killing activity against a range of bacteria. The class given is cell-based, Staphylococcus aureus.
The subject of data set [4] is Mycobacterium smegmatis (proxy for M. tuberculosis). In words: Killing activity against a range of bacteria. The class given is cell-based.
A further data set relates to Listeria monocytogenes. The experiment in a line: Killing activity against a range of bacteria. The class given is cell-based.
Another data set relates to PsA PAO1. The experiment in a line: Minimum inhibitory concentration (MIC) of ZnPor (II).
The next data set has as its system PsA PAO1 biofilm. The experiment in a line: PAO1 biofilm on coupons, LIVE/DEAD stain, confocal microscopy. The class given is cell-based, Pseudomonas aeruginosa. As to the method:
FIG. 2A: ZnPor (alone) stained biofilm. […] Length of size bar: […].
FIGS. 15A-15B show the biofilms of PAO1 treated with various concentrations of ZnPor (II) and in combination with PEV2 phage. Biofilms of strain PAO1 were grown on coupons cut from polyethylene in MSG media for approximately 16-18 hours. Overnight media was replaced with fresh PBS and were treated with (FIG. 15B) ZnPor (II) only at concentrations of 5, 10 or 25 μg/mL, and incubated for 2 h, (FIG. 15A) phage PEV2 only (MOI=10:1) for 4 h, or (FIG. 15B) ZnPor (II) treatment for 2 h followed by the addition of phage PEV2 (MOI of 10:1) and incubated for an additional 4 h. Coupons were gently washed in distilled water and were treated with LIVE/DEAD™ stain. All coupons were imaged using confocal laser scanning […] microscopy (CLSM) at 60×. Green=LIVE Red=DEAD.
PAO1 was grown overnight in MSG at 37 C with shaking. CDC Bioreactors with PE coupons were inoculated to a final OD of 0.15 in cation adjusted Mueller Hinton broth. Biofilms were grown 16-18 h at 37 degrees C. with 50 rpm stirring. Control biofilm is shown (FIG. 20A). All overnight media in bioreactors were replaced with fresh PBS. Bioreactors treated with ZnPor (II) at 4 μg/mL were left to incubate for 2 hours without stirring. Bioreactors treated with either whole PEV2 phage or the purified DNA genome of PEV2 were incubated for 24 hours without stirring. […]

In the next data set the test system is phage PEV2. In words: Inactivation of phage PEV2 (PFU titer). Also noted: species or system Pseudomonas phage PEV2. Here is the method: Phage PEV2 was diluted to 10^9 PFU/mL in phage buffer and treated with ZnPor (25 μg/mL) for a total of 4 hours. A 300 W light was used to photoactivate ZnPor_light treatments for 20 minutes. Measurements of plaque forming units (PFU/mL) were taken at each timepoint by serially diluting phage to determine titer using a soft agar overlay protocol. Data from 3 separate experiments represents total mean±standard error, total (n=8).

Another data set deals with ex-vivo grown lung cells. In words: Toxicity to ex-vivo grown lung cells versus effective concentration.
The subject of another data set is A549 cells. The experiment in a line: Lung cell toxicity, traditional cell culture. The conditions noted are these: concentration exceeding therapeutic range. It counts as cell-based, human. The text has this: Sample represented in graph is a traditional cell culture model and the cells were A549 cells—human lung epithelial cells.
The subject of data set [5] is planktonic PsA PAO1 cells. In words: Syber Green entry into planktonic cells (permeabilization). The class given is cell-based, Pseudomonas aeruginosa. As to conditions: pre-treated planktonic PsA cells. As to the method:
Syber Green™ can pass through the cell wall into PsA cells pre-treated with ZnPor (II) at concentrations as low as 1 μg/mL; this is below the MIC (4 ug/m). Cells treated with ZnPor (II) allowed the entry of the Syber Green molecule even at sub-MIC concentrations of ZnPor (II).

For data set [6], the system named is PsA. In words: Activity of extant antibiotics together with ZnPor (II).
Data set [7] deals with PsA. In words: Mouse model of PsA lung infection. The class given is in vivo, mice. Here is the method: Mice were infected with PsA intratracheally, and subsequently treated with 125 μM ZnPor intratracheally. Bronchoalveolar lavage (BAL) was collected at 16 h. Bacterial titers were measured in BAL. *p<0.05, Mann-Whitney U. Representative of one experiment.
Based on in vitro experiments showing significant bactericidal activity of ZnPor against PsA and minimal toxicity of ZnPor in vitro in airway and alveolar epithelial cells as well as in monocytes/macrophages, the next experiments examined efficacy and safety of ZnPor in PsA infection in mice. Wildtype (WT) mice were anesthetized and infected with 5×10^6 CFU PsA via intratracheal route. Immediately following infection, mice were anesthetized again and treated with ZnPor (125 μM) or PBS (negative control). Mice were monitored for clinical signs of toxicity. At 16 h, mice were sacrificed and bronchoalveolar lavage (BAL) and lungs were isolated.

Regarding “meso-5,10,15-tris(N-methyl-4-pyridyl)-20-(pentafluorophenyl)porphyrinatozinc(II), tris-p-toluene sulfonate [ZnPor]”, the bactericidal concentration in [1] (PsA) came to 25 µg/mL. Besides, the “MBC:MIC ratio” value in data set [1] (derived from kill curves) came out at 2. The results for the toxicity entry in the data set with A549/U937, in the data set with A549 cells and with human lung or skin cells were “no toxicity”, “No toxicity was observed” and “no toxicity”, respectively. The killing result (in data set [2]; in data set [3]; in [4]; in the data set with Listeria monocytogenes) was “effective at killing” in each case. Also, in the data set with PsA PAO1, the MIC (as a rule, the lowest concentration found to suppress growth) was determined as 4 µg/mL. The biofilm clearing result with PsA PAO1 biofilm (25 μg/mL ZnPor alone, 2 h) is given as “almost complete clearing of the biofilm”. For the same substance, the “LIVE/DEAD state of biofilm” value with PsA PAO1 biofilm (pre-treated with ZnPor (II) 4 μg/mL before adding PEV2 whole phage) is “only dead cells”. In the data set on phage PEV2 (with photoactivation), the “effect of photoactivation on killing” value was “quicker and greater killing”. For the same substance, in the data set with phage PEV2 (without light activation), the inactivation of viruses result was “able to inactivate viruses without light activation”. Further, the “effect on bacteriophage PEV2” value in the data set with phage PEV2 (without photoactivation) is recorded as “inactivates”. Also, the “effective concentration, fold lower than that causing any toxicity” value with ex-vivo grown lung cells was “up to 100 ×”. In addition, the “lowest ZnPor (II) concentration allowing Syber Green entry” value in [5] is 1 µg/mL. For the same substance, the “effect on extant antibiotics ineffective against bacterial biofilms, e.g., Tobramycin” value in the data set on PsA [6] is “enables activity”. In addition, the “non-toxic level relative to the MBC for S. aureus MRSA strain” value in the data set on human lung or skin cells is on record as “over 100 times”. Also, the “bacterial titers in BAL and lung homogenates” value in the data set on PsA [7] (WT mice, 5×10^6 CFU PsA intratracheal, ZnPor 125 μM, 16 h) was “significantly decreased PsA infection”. Moreover, the clinical toxicity entry in the data set with PsA [7] (ZnPor-treated versus untreated mice, 125 μM) is “No clinical toxicity was observed”.

Values taken from patent US11975009B2, “Use of zinc porphyrin as an antimicrobial” (ZNABLE LLC, priority 2022, dated 2024).
